Results taken from patent US10414754B2, “Indolizine compounds, a process for their preparation and pharmaceutical compositions containing them” (LES LABORATOIRES SERVIER, priority 2013, dated 2019).
Where a name gives a salt, the structure may show the parent alone.

Key:
[1] = target: T1, Bcl-2 protein (histag-Bcl-2, UniProtKB P10415) (Homo sapiens, UniProt P10415); test: Inhibition of Bcl-2 by the fluorescence polarisation technique; format: binding; conditions: fluorescence polarisation, 2 hours incubation; read-out: IC50 (nM) Bcl-2 FP
T1 construct: His tag
How it was run: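 Fluorescence polarisation competition: His-tagged human Bcl-2 (2.50×10^−8 M final) was mixed with fluorescein-labelled peptide (1.00×10^−8 M final) and increasing compound concentrations. Buffer was 10 mM Hepes, 150 mM NaCl, 0.05% Tween20, pH 7.4. Polarisation was read after 2 h.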

[2] = system: RS4;11 leukaemia tumour line; test: In vitro cytotoxicity (MTT) on RS4;11; format: cell-based; conditions: Homo sapiens; RS4;11 cells, 48 hours exposure
Description: The cytotoxicity studies were carried out on the RS4;11 leukaemia tumour line.
The cells are distributed onto microplates and exposed to the test compounds for 48 hours.
The cell viability is then quantified by a colorimetric assay, the Microculture Tetrazolium Assay (Cancer Res., 1987, 47, 939-942).

T1 sequence (P10415 whole entry): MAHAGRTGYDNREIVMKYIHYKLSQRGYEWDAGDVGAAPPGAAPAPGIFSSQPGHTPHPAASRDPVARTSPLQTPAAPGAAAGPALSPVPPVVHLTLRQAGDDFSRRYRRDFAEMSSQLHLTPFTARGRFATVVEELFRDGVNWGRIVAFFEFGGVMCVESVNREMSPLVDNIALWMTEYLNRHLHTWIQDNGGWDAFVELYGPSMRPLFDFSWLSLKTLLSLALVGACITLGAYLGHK

Question: Which IC50 [1] does the source give for `Cc1cnn2cc(N(C(=O)c3cc(-c4cc5c(cc4C(=O)N4Cc6ccccc6C[C@H]4C)OCO5)n4ccccc34)c3ccc(O)cc3)cnc12` [Example 86, N-(4-Hydroxyphenyl)-3-[6-[(3R)-3-methyl-3,4-dihydro-1H-isoquinoline-2-carbonyl]-1,3-benzodioxol-5-yl]-N-(3-methylpyrazolo[1,5-a]pyrimidin-6-yl)-indolizine-1-carboxamide hydrochloride] here?
Answer: 5 nM

Question: What about the IC50 [2] of the same molecule?
Answer: 20.1 nM
